Where two headings read alike, the source gives them in different places.
Legend:
Assay type in all cases: cell-based
[1] = target: T1, human GLP-1 receptor (GLP-1R) (Homo sapiens, UniProt P43220); assay: cAMP assay, human GLP-1R cells
T1 construct: expressed in transfected cells
Outline: (§1)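 Peptide-stimulated cAMP measured by two-step HTRF after a 30 min room-temperature incubation with receptor-expressing cells (hGLP-1R, hGIPR at 1×10^5 cells/ml; hGCGR at 2×10^5 cells/ml). Duplicate dilutions; EC50 from 4-parameter logistic fit of % Delta F.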

[2] = target: T2, human glucagon receptor (GCGR) (Homo sapiens, UniProt P47871); assay: cAMP assay, human GCGR cells
T2 construct: expressed in transfected cells
T2 sequence (P47871 26-477): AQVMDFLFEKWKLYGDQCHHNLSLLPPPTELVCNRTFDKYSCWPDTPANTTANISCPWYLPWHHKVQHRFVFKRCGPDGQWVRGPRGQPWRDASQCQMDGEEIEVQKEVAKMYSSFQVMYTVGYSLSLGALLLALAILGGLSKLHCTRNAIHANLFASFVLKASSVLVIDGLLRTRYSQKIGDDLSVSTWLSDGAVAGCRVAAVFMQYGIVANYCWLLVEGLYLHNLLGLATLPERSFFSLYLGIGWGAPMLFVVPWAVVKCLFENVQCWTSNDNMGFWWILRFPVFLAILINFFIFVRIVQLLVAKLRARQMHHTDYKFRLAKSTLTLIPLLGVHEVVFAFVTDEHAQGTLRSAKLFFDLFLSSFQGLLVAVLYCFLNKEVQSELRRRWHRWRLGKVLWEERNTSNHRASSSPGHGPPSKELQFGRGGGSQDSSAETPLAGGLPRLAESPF
Outline: as §1

[3] = target: T3, human glucose-dependent insulinotropic peptide receptor (GIPR) (Homo sapiens, UniProt P48546); assay: cAMP assay, human GIPR cells
T3 construct: expressed in transfected cells
T3 sequence (P48546 22-466): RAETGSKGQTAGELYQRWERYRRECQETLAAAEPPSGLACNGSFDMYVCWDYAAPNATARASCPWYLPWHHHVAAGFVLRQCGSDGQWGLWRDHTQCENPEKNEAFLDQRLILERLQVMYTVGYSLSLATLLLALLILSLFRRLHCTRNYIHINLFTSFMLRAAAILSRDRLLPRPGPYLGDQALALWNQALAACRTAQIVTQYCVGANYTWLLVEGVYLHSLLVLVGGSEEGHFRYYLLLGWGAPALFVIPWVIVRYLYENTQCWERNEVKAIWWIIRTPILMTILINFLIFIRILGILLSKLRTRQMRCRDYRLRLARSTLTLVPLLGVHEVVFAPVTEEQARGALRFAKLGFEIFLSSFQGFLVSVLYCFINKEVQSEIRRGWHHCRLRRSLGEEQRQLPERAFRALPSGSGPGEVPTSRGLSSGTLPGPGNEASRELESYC
Outline: as §1

GLP-1R (INS1e assay) = target: T4, GLP-1R (INS1e assay) (Rattus norvegicus, UniProt P32301); assay: INS1e assay, cAMP activity at GLP-1R; settings: mono-lipidated peptides
T4 construct: endogenous in cells; host or cells: INS-1E cells
T4 sequence (P32301 22-463): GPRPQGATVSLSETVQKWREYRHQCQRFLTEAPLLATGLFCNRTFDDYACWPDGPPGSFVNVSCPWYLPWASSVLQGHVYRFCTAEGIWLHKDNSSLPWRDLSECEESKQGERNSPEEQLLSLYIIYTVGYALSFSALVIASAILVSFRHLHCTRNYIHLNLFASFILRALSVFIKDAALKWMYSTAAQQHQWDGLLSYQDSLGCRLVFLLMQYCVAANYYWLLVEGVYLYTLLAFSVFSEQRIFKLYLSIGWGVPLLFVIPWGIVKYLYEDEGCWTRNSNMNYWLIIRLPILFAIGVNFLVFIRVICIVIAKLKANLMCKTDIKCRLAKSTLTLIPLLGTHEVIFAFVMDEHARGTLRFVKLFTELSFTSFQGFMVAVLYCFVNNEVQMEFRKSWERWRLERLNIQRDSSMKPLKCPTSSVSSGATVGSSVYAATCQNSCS
Outline: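 cAMP was quantified by two-step HTRF, using anti-cAMP cryptate donor and cAMP-d2 acceptor, each diluted 1/20 in conjugate and lysis buffer. EC50 values of the synthetic peptides were derived from the cAMP readout.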

[4] = mean of n1 and n2, read-out: Mean pM GLP-1R
[5] = mean of n1 and n2, read-out: INS1e assay EC50 Mean pM GLP-1R
[6] = replicate n1, read-out: INS1e assay EC50 GLP-1R n1
[7] = replicate n2, read-out: INS1e assay EC50 GLP-1R n2
[8] = cAMP assay, first determination (n1), read-out: Primary assay EC50 GLP-1R n1
[9] = cAMP assay, second determination (n2), read-out: Primary assay EC50 GLP-1R n2

T1 sequence (P43220 24-463): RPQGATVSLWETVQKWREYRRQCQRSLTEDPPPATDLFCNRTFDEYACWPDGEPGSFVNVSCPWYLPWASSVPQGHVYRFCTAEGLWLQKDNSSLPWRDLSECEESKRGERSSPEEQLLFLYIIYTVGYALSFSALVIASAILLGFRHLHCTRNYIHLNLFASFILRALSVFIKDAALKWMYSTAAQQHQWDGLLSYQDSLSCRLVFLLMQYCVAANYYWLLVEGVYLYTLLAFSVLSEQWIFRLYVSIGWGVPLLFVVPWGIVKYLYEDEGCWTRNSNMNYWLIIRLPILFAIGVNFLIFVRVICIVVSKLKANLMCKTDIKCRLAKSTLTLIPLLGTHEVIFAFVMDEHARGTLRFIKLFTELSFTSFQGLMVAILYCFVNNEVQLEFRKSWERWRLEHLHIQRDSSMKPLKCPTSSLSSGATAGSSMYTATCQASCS

EC50 ([1]; first run (n1), cAMP activity, read-out: Primary assay EC50 GLP-1R n1)	EC50 [1, 4]	EC50 ([1]; second run (n2), cAMP activity, read-out: Primary assay EC50 GLP-1R n2)	EC50 ([2]; first run (n1), cAMP activity of substituted and mono-lipidated peptides, read-out: Primary assay EC50 Gluc-R)	EC50 ([2]; second run (n2), cAMP activity, read-out: Primary assay EC50 Gluc-R)	EC50 ([3]; first run (n1), cAMP activity, read-out: Primary assay EC50 GIP-R)	EC50 ([3]; second run (n2), cAMP activity, read-out: Primary assay EC50 GIP-R)	EC50 (GLP-1R (INS1e assay); [5])	EC50 (GLP-1R (INS1e assay); [6])	EC50 (GLP-1R (INS1e assay); [7])	EC50 ([2]; cAMP assay, first determination (n1), read-out: Primary assay EC50 Gluc-R (n1))	EC50 ([2]; cAMP assay, second determination (n2), read-out: Primary assay EC50 Gluc-R (n2))	EC50 ([3]; cAMP assay, first determination (n1), read-out: Primary assay EC50 GIP-R (n1))	EC50 ([3]; cAMP assay, second determination (n2), read-out: Primary assay EC50 GIP-R (n2))	SMILES	EC50 [1, 8]	EC50 [1, 9]	EC50 ([2]; Primary assay EC50 Gluc-R (n1), cAMP assay, first determination (n1))	EC50 ([2]; read-out: Primary assay EC50 Gluc-R (n2), cAMP assay, second determination (n2))	EC50 ([3]; Primary assay EC50 GIP-R (n1), cAMP assay, first determination (n1))	EC50 ([3]; read-out: Primary assay EC50 GIP-R (n2), cAMP assay, second determination (n2))
9.7 pM	7.2 pM	4.7 pM	≥ 26 nM	≥ 26 nM	≥ 26 nM	≥ 26 nM	44.1 pM	39.7 pM	48.5 pM	–	–	–	–	CCCCCCCCCCCCCCCCCC(=O)NCCOCCOCC(=O)NCCOCCOCC(=O)NCCOCCOCC(=O)NCCCC[C@H](NC(=O)[C@@H](NC(=O)[C@@H](NC(=O)[C@](C)(Cc1ccccc1)NC(=O)[C@H](C)NC(=O)[C@@H](NC(=O)[C@](C)(Cc1ccccc1)NC(=O)[C@H](CCC(=O)O)NC(=O)[C@](C)(CCCCN)NC(=O)[C@H](C)NC(=O)[C@H](C)NC(=O)[C@H](CCC(=O)O)NC(=O)CNC(=O)[C@H](CCC(=O)O)NC(=O)[C@H](CC(C)C)NC(=O)[C@](C)(Cc1ccccc1)NC(=O)[C@H](CO)NC(=O)[C@](C)(CO)NC(=O)[C@@H](NC(=O)[C@H](CC(=O)O)NC(=O)[C@H](CO)NC(=O)[C@@H](NC(=O)[C@](C)(Cc1ccccc1)NC(=O)[C@H](CO)NC(=O)CNC(=O)[C@H](CCC(=O)O)NC(=O)C(C)(C)NC(=O)[C@@H](N)Cc1c[nH]cn1)[C@@H](C)O)C(C)C)[C@@H](C)CC)C(C)C)C(C)C)C(=O)NCC(=O)NCC(N)=O [compound 190]	–	–	–	–	–	–
–	2.6 pM	–	–	–	–	–	181 pM	93.1 pM	269 pM	≥ 27 nM	≥ 27 nM	≥ 27 nM	≥ 27 nM	CCCCCCCCCCCC(=O)NCCCCCC(=O)NCCCCCC(=O)NCCCCCC(=O)NCCCC[C@H](NC(=O)[C@@H](NC(=O)[C@@H](NC(=O)[C@](C)(Cc1ccccc1)NC(=O)[C@H](C)NC(=O)[C@@H](NC(=O)[C@](C)(Cc1ccccc1)NC(=O)[C@H](CCC(=O)O)NC(=O)[C@](C)(CCCCN)NC(=O)[C@H](C)NC(=O)[C@H](C)NC(=O)[C@H](CCC(=O)O)NC(=O)CNC(=O)[C@H](CCC(=O)O)NC(=O)[C@H](CC(C)C)NC(=O)[C@](C)(Cc1ccccc1)NC(=O)[C@H](CO)NC(=O)[C@](C)(CO)NC(=O)[C@@H](NC(=O)[C@H](CC(=O)O)NC(=O)[C@H](CO)NC(=O)[C@@H](NC(=O)[C@](C)(Cc1ccccc1)NC(=O)[C@H](CO)NC(=O)CNC(=O)[C@H](CCC(=O)O)NC(=O)C(C)(C)NC(=O)[C@@H](N)Cc1c[nH]cn1)[C@@H](C)O)C(C)C)[C@@H](C)CC)C(C)C)C(C)C)C(=O)NCC(=O)NCC(N)=O [compound 169]	3.4 pM	1.7 pM	–	–	–	–

SMILES	EC50 ([1]; first run (n1), cAMP activity, read-out: Primary assay EC50 GLP-1R n1)	EC50 [1, 4]	EC50 ([1]; second run (n2), cAMP activity, read-out: Primary assay EC50 GLP-1R n2)	EC50 ([2]; first run (n1), cAMP activity of substituted and mono-lipidated peptides, read-out: Primary assay EC50 Gluc-R)	EC50 ([2]; second run (n2), cAMP activity, read-out: Primary assay EC50 Gluc-R)	EC50 ([3]; first run (n1), cAMP activity, read-out: Primary assay EC50 GIP-R)	EC50 ([3]; second run (n2), cAMP activity, read-out: Primary assay EC50 GIP-R)	EC50 (GLP-1R (INS1e assay); [5])	EC50 (GLP-1R (INS1e assay); [6])	EC50 (GLP-1R (INS1e assay); [7])	EC50 ([2]; cAMP assay, first determination (n1), read-out: Primary assay EC50 Gluc-R (n1))	EC50 ([2]; cAMP assay, second determination (n2), read-out: Primary assay EC50 Gluc-R (n2))	EC50 ([3]; cAMP assay, first determination (n1), read-out: Primary assay EC50 GIP-R (n1))	EC50 ([3]; cAMP assay, second determination (n2), read-out: Primary assay EC50 GIP-R (n2))	EC50 [1, 8]	EC50 [1, 9]	EC50 ([2]; Primary assay EC50 Gluc-R (n1), cAMP assay, first determination (n1))	EC50 ([2]; read-out: Primary assay EC50 Gluc-R (n2), cAMP assay, second determination (n2))	EC50 ([3]; Primary assay EC50 GIP-R (n1), cAMP assay, first determination (n1))	EC50 ([3]; read-out: Primary assay EC50 GIP-R (n2), cAMP assay, second determination (n2))
CC[C@H](C)[C@H](NC(=O)[C@](C)(Cc1ccccc1)NC(=O)[C@H](CCC(=O)O)NC(=O)[C@H](CCCCNC(=O)CC[C@H](NC(=O)CCCCCCCCCCCOc1ccc(C(=O)O)cc1)C(=O)O)NC(=O)[C@H](C)NC(=O)[C@H](C)NC(=O)[C@H](CCC(=O)O)NC(=O)CNC(=O)[C@H](CCC(=O)O)NC(=O)[C@H](CC(C)C)NC(=O)[C@](C)(Cc1ccccc1)NC(=O)[C@H](CO)NC(=O)[C@](C)(CO)NC(=O)[C@@H](NC(=O)[C@H](CC(=O)O)NC(=O)[C@H](CO)NC(=O)[C@@H](NC(=O)[C@](C)(Cc1ccccc1)NC(=O)[C@H](CO)NC(=O)CNC(=O)[C@H](CCC(=O)O)NC(=O)C(C)(C)NC(=O)[C@@H](N)Cc1c[nH]cn1)[C@@H](C)O)C(C)C)C(=O)N[C@@H](C)C(=O)N[C@@](C)(Cc1ccccc1)C(=O)N[C@H](C(=O)N[C@H](C(=O)N[C@@](C)(CCCCN)C(=O)NCC(=O)NCC(N)=O)C(C)C)C(C)C [compound 137]	–	5.2 pM	–	–	–	–	–	50 pM	63.7 pM	36.2 pM	–	–	–	–	6.6 pM	3.8 pM	≥ 27 nM	≥ 27 nM	≥ 27 nM	≥ 27 nM
